Patent US6969590B2, “Use of a polypeptide for treatment of pruritus in animals” (Zengen, Inc., priority 2001, dated 2005)

Legend:
[1] = test system: edema caused by intradermal injection of human recombinant IL-1β in the mouse ear; assay: Ear edema by intradermal recombinant human IL-1β; format: in vivo, BALB/c mice; conditions: for effect of antagonist on anti-inflammatory effect of centrally administered α-MSH (1-13): antagonist administered intraperitoneally
Protocol: Female BALB/c mice (Simonsen Laboratories, Gilroy, Calif.), 7-8 weeks old, were housed at 23-25° C. in groups not exceeding five animals per cage [28 cm (L)×18 cm (W)×13 cm (H)]. Before the experiments they were acclimatized for not less than 1 week before experimentation to standard lighting and temperature conditions with food and water freely available.
Mice were anesthetized with 10% pentobarbital sodium solution (1 mg/mouse, 50 mg/ml, Nembutal sodium solution; Abbott Laboratories, North Chicago, Ill.). Baseline ear thickness measurements were taken with a spring-loaded micrometer (Swiss Precision Instruments, Los Angeles, Calif.). Ear thickness was expressed in cubic centimeters and was measured at least twice at each time point. The average thickness of unstimulated ears was […]. Inflammation was induced by intradermal injection of 20 μl of recombinant human IL-1β (1500 U; Genzyme, Cambridge, Mass.) in one ear of each mouse using a 28 gauge needle (Hiltz et al., 1992). Measures of ear thickness were repeated 4 and 6 hr later, while the mice were under sodium pentobarbital anesthesia. Edema was assessed by subtracting baseline measures from 4 and 6 hr readings for each animal. α-MSH (11-13) (1663.9 gm/mol; Peninsula Laboratories, Belmont, Calif.) or α-MSH (11-13) (383.48 gm/mol; Peninsula Laboratories) dissolved in saline was injected intracerebroventricularly (20 μl) using procedures described previously (Lipton et al., 1991; Lipton and Catania, 1993).
Several agents were administered at the time of ear challenge to pharmacologically block certain receptors: atropine (Sigma Chemical Co.; 150 μg i.p.), a muscarinic receptor blocker that acts on autonomic end-organ receptors, was chosen because of links between inflammation and modulation of pain and the finding that muscarinic antagonists increase pain threshold (Hartvig et al., 1989); phentolamine (Sigma; 150 μg i.p.) an agent that competes for occupancy of α-adrenergic receptors; propranolol (Sigma; 150 μg, i.p.; 30 μg, i.c.v.), a nonspecific competitive antagonist for β-adrenergic receptors.
(§1) Because of the size of the experiments and the requirement for several shipments of animals over time, several experiments were performed, each with complete treatment and control groups drawn from the same shipment of mice. Omnibus analysis of variance techniques (Dynastat, Washington, D.C.) were used to test overall differences among group means. Tukey's protected t test was used to compare individual means. Probability values of <0.05 were considered significant.

[2] = test system: inflammation induced in the hind paw; assay: Kappa carrageenan-induced hind paw inflammation, spinal cord intact or transected; format: in vivo, BALB/c mice; conditions: 2.5 mg/mouse IP, mice with spinal transection, 4.5 h after carrageenan
Protocol: Because surgical dissection of trigeminal structures that innervate the ear of the mouse is very difficult, tests to learn whether descending neural pathways are essential to the anti-inflammatory activity of centrally administered α-MSH peptides were performed in mice with inflammation induced in a hind paw. In these experiments, each animal was anesthetized with pentobarbital sodium solution as above. Baseline footpad thickness of both hind paws was measured with a spring-loaded micrometer (Swiss Precision Instruments, Los Angeles, Calif.). Paw thickness was expressed in units of 10^−3 cm; average thickness of unstimulated paws was 171.5×10^−3 cm across shipments of animals. Kappa carrageenan (Sigma) dissolved in saline (0.05%, 20 μl) was injected (28 gauge allergy test syringe) into one footpad, and saline (20 μl) was injected into the other. For the analyses, the increase in thickness of the control saline-injected paw of each animal was subtracted from that of the carrageenan-injected paw, to eliminate the influence of mechanical injury and volume of the injected fluid. To be certain that mice with severed spinal cords can react to anti-inflammatory agents, prednisolone (2.5 mg/mouse (IP injection)) was administered to 10 mice with spinal transection and inflammation induced by carrageenan. Treatment with the locally acting steroid reduced swelling up to 29% (average, relative to saline controls) at 4.5 h. after carrageenan.
However, a standardized crushing of lumbar vertebrae with a hemostat was effective in severing the cord; no deaths were caused by this treatment. […] The experiments were limited to 4.5 h to reduce problems of bowel and bladder dysfunction. Immediately after the 4.5 h measurements all mice were killed with an overdose of sodium pentobarbital.
as §1

[3] = test system: C. albicans; assay: C. albicans colony forming units (candidacidal activity); format: cell-based; conditions: for relative potency in reducing C. albicans viability: 10^−4M melanocortin peptides; for reduction of C. albicans CFU at higher concentrations: up to 10^−4M
Protocol: C. albicans (1×10^6/ml in HBSS) was incubated in the presence or absence or α-MSH (1-13) or α-MSH (11-13) at concentrations in the range of 10^−15 M to 10^−6 M for 2 hours at 37° C. Cells were then washed in cold distilled water and diluted with HBSS to a concentration of 100 organisms/ml. One-ml aliquots were dispensed on blood agar plates and incubated for 48 hours at 37° C. Organism viability was estimated from the number of colonies formed. In subsequent experiments using familiar procedures we compared activity of α-MSH (4-10), α-MSH (6-13), α-MSH (11-13), ACTH (1-39), (18-39) and fluconazole, the latter an established antifungal agent. Melanocortin peptides and fluconazole were tested in concentrations of 10^−6 M to 10^−4 M. There were at least six replicates for each concentration of peptide.

[4] = test system: inflammation induced in the ear by picryl chloride; assay: Picryl chloride-induced ear swelling; format: in vivo, BALB/C mice; conditions: for overall effect on ear inflammation (ANOVA): 10-80 μg IP, 3 and 6 h
Protocol: Female BALB/C mice (Simmons Laboratories), 7 weeks old, were housed at 23-25° C. in groups of no more than 5 per cage [28 cm (L)×18 cm (W)×13 cm (H)]. They were allowed to acclimatize to standard lighting and temperature conditions for at least 1 week, with food and water available ad lib, before the experiment began. Five to ten animals were randomly assigned to each treatment group each test day, and all experiments were repeated at least twice to confirm reproducibility. To reduce error due to slight differences in responses to the irritant of animals from different shipments, tests of each agent were performed as separate experiments in which experimental and control animals were drawn from the same shipment.
In the experiments each animal was anesthetized with 1 mg of pentobarbital sodium solution (50 mg/kg, Nembutal, Abbott Laboratories, Abbott park, Ill.). Baseline ear thickness was measured for both ears with a spring-loaded micrometer (Swiss Precision Instruments, Los Angeles, Calif.). Ear thickness was expressed in units of 10^−3 cm; the average thickness of unstimulated ears was approximately 25-30×10^−3 cm. After baseline measurements were taken, one of six solutions was injected IP. Control animals received 0.2 ml of sterile saline, and experimental animals received Ac-α-MSH (11-13)-NH2, i.e., Ac-Lys-Pro-Val-NH2), Ac[D-Lys^11] α-MSH (11-13)-NH2, Ac[D-Pro^12] α-MSH (11-13)-NH2, Ac[D-Val^13] α-MSH (11-13)-NH2 or Ac-[D-Lys^11, D-Val^13] α-MSH (11-13)-NH2 in the same volume of saline. […] The doses of the tripeptides were 10 μg ([…]), 20 μg ([…]), 40 μg (1.04×10^−7 M), and 80 μg (2.08×10^−7 M). Immediately after saline or α-MSH injection, a micropipette was used to coat both sides of each ear with 10 μl (40 μl per mouse) of a 0.5% picryl chloride (Polysciences, Warrington, Pa.) solution in acetone.
Ear thickness was remeasured 3 and 6 h after picryl chloride application. Swelling was determined by subtracting baseline thickness from the measurements for each ear at 3 and 6 h. The differences for both ears were then averaged for the final analysis.
Repeated-measure ANOVA techniques were used to determine if there was an overall difference among group data for each peptide tested in separate experiments. In those cases in which the ANOVA yielded significant results, Dunnett's test was then used to compare the effects of peptide doses with control (saline) data for each of the two time periods, 3 and 6 h.

[5] = test system: C. albicans; assay: Horse serum-induced germ tube formation of C. albicans; format: cell-based; conditions: 10^−6M, 60 minutes at 37° C.
Protocol: C. albicans from stationary phase cultures were washed twice with distilled water and suspended in HBSS to a final concentration of 2×10^6/ml. Hyphal growth was induced by addition of 10% inactivated horse serum (GIBCO/BRL, Great Britain) to yeast incubated for 45 minutes at 37° C. with continuous shaking. Horse serum was removed by washing cells twice with HBSS and incubation was continued for 60 minutes at 37° C. in the presence of α-MSH (1-13), α-MSH (6-13) or α-MSH (11-13) at a concentration of 10^−6M with continuous shaking. The percentage of filamentous cells was evaluated under a light microscope with the aid of hemocytometer. Experiments were run in triplicate and at least 200 cells were scored. Photomicrographs were taken with an MC100 camera attached to an Axioskop Zeiss microscope.

Question: `CC(C)NCC(O)COc1ccc(CC(N)=O)cc1` (centres unmarked) [atenolol] was tested. Which “effect of antagonist on anti-inflammatory effect of centrally administered α-MSH (1-13)” value (from here on “effect … of centrally administered α-MSH (1-13)”) [1] did it give?
Answer: little inhibition

Question: Which “effect … of centrally administered α-MSH (1-13)” value [1] does the source give for `CN1[C@@H]2CC[C@H]1C[C@@H](OC(=O)C(CO)c1ccccc1)C2` (some centres unmarked) [atropine] here?
Answer: did not alter

Question: `COc1ccc(OC)c(C(O)C(C)NC(C)(C)C)c1` (centres unmarked) [butoxamine] was tested. Which “effect … of centrally administered α-MSH (1-13)” value [1] did it give?
Answer: significantly reduced

Question: Which “effect … of centrally administered α-MSH (1-13)” value [1] does the source give for `Cc1ccc(N(CC2=NCCN2)c2cccc(O)c2)cc1` [phentolamine] here?
Answer: did not alter

Question: Which “reduction of swelling relative to saline controls (average)” value [2] does the source give for `C[C@]12C=CC(=O)C=C1CC[C@@H]1[C@@H]2[C@@H](O)C[C@@]2(C)[C@H]1CC[C@]2(O)C(=O)CO` [prednisolone, reference compound] here?
Answer: up to 29%

Question: What does the source list for `CC(C)NCC(O)COc1cccc2ccccc12` (centres unmarked) [propranolol]?
Answer: effect of antagonist on anti-inflammatory effect of centrally administered α-MSH (1-13) [1]: inhibited; effect of antagonist on anti-inflammatory influence of α-MSH (1-13) ([1]; antagonist injected centrally): little effect

Question: What does the source list for “ACTH (1-39): adrenocortitrophic hormone peptide (1-39) (SYSMEHFRWGKPVGKKRRPVKVYPNGAEDESAEAFPLEF; Corticotropin; UniProt P01189 138-176, looked up) [reference compound]”?
Answer: relative potency in reducing C. albicans viability [3]: did not reduce C. albicans viability; reduction of C. albicans CFU at higher concentrations [3]: ineffective

Question: “ACTH fragment (18-39): ACTH fragment (18-39) (RPVKVYPNGAEDESAEAFPLEF; Corticotropin; UniProt P01189 155-176, looked up, fragment) [reference compound]” was tested. Which “relative potency in reducing C. albicans viability” value [3] did it give?
Answer: did not reduce C. albicans viability

Question: What about the “reduction of C. albicans CFU at higher concentrations” value [3] of the same molecule?
Answer: ineffective

Question: Which results are given for “Ac-[D-Lys^11, D-Val^13] α-MSH (11-13)-NH2 [Ac-[D-Lys^11, D-Val^13]α-MSH(11-13)-NH2]”?
Answer: % Inhibition of swelling ([4]; 10 μg IP, 3 h): 22%; % Inhibition of swelling ([4]; 10 μg IP, 6 h): 22%; % Inhibition of swelling ([4]; 20 μg IP, 3 h): 55%; % Inhibition of swelling ([4]; 20 μg IP, 6 h): 46%; % Inhibition of swelling ([4]; 40 μg IP, 3 h): 42%; % Inhibition of swelling ([4]; 40 μg IP, 6 h): 41%; % Inhibition of swelling ([4]; 80 μg IP, 3 h): 40%; % Inhibition of swelling ([4]; 80 μg IP, 6 h): 44%; overall effect on ear inflammation (ANOVA) [4]: significant overall reduction in inflammation

Question: How did the “% Inhibition of swelling” value ([4]; 10 μg IP, 3 h) turn out when Ac-[D-Pro^12]α-MSH (11-13)-NH2 was run?
Answer: 4%

Question: What about the “% Inhibition of swelling” value ([4]; 10 μg IP, 6 h) of the same molecule?
Answer: 8%

Question: And the “% Inhibition of swelling” value ([4]; 20 μg IP, 3 h)?
Answer: 11%

Question: What about the “% Inhibition of swelling” value ([4]; 20 μg IP, 6 h) of the same molecule?
Answer: 5%

Question: What about the “% Inhibition of swelling” value ([4]; 40 μg IP, 3 h) of the same molecule?
Answer: 10%

Question: What about the “% Inhibition of swelling” value ([4]; 40 μg IP, 6 h) of the same molecule?
Answer: 8%

Question: And the “% Inhibition of swelling” value ([4]; 80 μg IP, 3 h)?
Answer: 8%

Question: What about the “% Inhibition of swelling” value ([4]; 80 μg IP, 6 h) of the same molecule?
Answer: 6%

Question: And the “overall effect on ear inflammation (ANOVA)” value [4]?
Answer: no significant effect on inflammation

Question: With Ac[D-Val^13] α-MSH (11-13)-NH2 as the molecule, how does the “% Inhibition of swelling” value ([4]; 10 μg IP, 3 h) read?
Answer: 24%

Question: And the “% Inhibition of swelling” value ([4]; 10 μg IP, 6 h)?
Answer: 23%

Question: And the “% Inhibition of swelling” value ([4]; 20 μg IP, 3 h)?
Answer: 48%

Question: What about the “% Inhibition of swelling” value ([4]; 20 μg IP, 6 h) of the same molecule?
Answer: 54%

Question: What about the “% Inhibition of swelling” value ([4]; 40 μg IP, 3 h) of the same molecule?
Answer: 39%

Question: And the “% Inhibition of swelling” value ([4]; 40 μg IP, 6 h)?
Answer: 45%

Question: What about the “% Inhibition of swelling” value ([4]; 80 μg IP, 3 h) of the same molecule?
Answer: 41%

Question: What about the “% Inhibition of swelling” value ([4]; 80 μg IP, 6 h) of the same molecule?
Answer: 29%

Question: And the “overall effect on ear inflammation (ANOVA)” value [4]?
Answer: marked inhibitory influence

Question: With “HFRWGKPV (Designed polypeptide with anti-inflammatory, anti-bacterial, anti-fungal and antipyretic properties.) [α-MSH (6-13)]” as the molecule, how does the “relative potency in reducing C. albicans viability” value [3] read?
Answer: the most effective

Question: What about the “reduction in the number of filamentous cells (inhibition of germination)” value [5] of the same molecule?
Answer: approximately 50%

Question: For MEHFRWG [α-MSH (4-10)], which “inhibition of CFU” value ([3]; 10^−4M peptide as printed) is on record?
Answer: approximately 50%
